Experimental data reported in patent US8399465B2, “Compounds with two fused bicyclic heteroaryl moieties as modulators of leukotriene A4 hydrolase” (Janssen Pharmaceutica NV, priority 2009, dated 2013).
pIC50: −log10 of the molar value. Structures can show the parent of a compound that is named as a salt. Where two headings read alike, the source gives them in different places.

How the values were obtained:
[1] = biological target: T1, recombinant human LTA4 hydrolase (rhLTA4H) (Homo sapiens, UniProt P09960); experiment: Recombinant human LTA4 hydrolase assay for LTA4 hydrolase inhibitor activity; type: biochemical; conditions: rhLTA4H, LTB4 by immunoassay; single determination or average of two or more; mark after value = form tested: ′ free base, ″ hydrochloride, ^ formate; read-out: IC50
T1 construct: made in house; host or cells: Spodoptera frugiperda (Sf-9) cells, baculovirus (pFastBac1)
T1 sequence (P09960 1-611): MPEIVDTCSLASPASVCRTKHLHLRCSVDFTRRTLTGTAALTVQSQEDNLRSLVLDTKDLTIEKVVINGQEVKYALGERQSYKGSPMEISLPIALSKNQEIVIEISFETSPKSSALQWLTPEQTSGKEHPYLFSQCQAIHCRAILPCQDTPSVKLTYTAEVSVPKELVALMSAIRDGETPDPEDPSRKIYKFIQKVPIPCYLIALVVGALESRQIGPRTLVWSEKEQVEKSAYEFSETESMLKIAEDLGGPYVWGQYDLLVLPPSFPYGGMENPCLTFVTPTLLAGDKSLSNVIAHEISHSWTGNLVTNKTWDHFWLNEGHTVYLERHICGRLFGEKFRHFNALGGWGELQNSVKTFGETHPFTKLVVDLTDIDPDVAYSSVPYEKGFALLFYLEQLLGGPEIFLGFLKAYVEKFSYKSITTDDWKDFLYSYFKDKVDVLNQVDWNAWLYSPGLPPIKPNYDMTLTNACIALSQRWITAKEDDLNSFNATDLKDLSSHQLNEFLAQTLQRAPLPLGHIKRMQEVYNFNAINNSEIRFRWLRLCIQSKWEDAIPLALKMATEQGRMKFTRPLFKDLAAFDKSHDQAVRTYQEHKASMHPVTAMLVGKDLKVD
Method in brief: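 Baculovirus/Sf-9-expressed human LTA4H (10 ng) was preincubated 10 min at rt with compound in assay buffer (10% DMSO in compound dilution), then reacted 30 min at rt with LTA4 free acid made from its methyl ester. LTB4 produced was measured by ELISA after dilution; IC50 from non-linear regression, single or averaged determinations.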

[2] = test system: LTB4 production in murine blood (LTA4H); experiment: LTB4 production by calcium ionophore-stimulated murine blood for LTA4H inhibitor activity; type: cell-based, CD-1 mice; conditions: Mus musculus
Method in brief: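 Heparinized blood from CD-1 mice was preincubated with compound for 15 min at 37° C, then stimulated with calcium ionophore A23187 (final 7 μg/mL) for 30 min. Centrifugation stopped the reaction, and LTB4 in the supernatant was measured by enzyme immunoassay. Values are single determinations or means of two or more.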

[3] = murine blood diluted 1 in 15, A23187 stimulated, single determination or average, mark after value = form tested: ′ free base, ″ hydrochloride, ^ formate, read-out: IC50

`CN(Cc1ccccc1)Cc1cc2cc(Oc3nc4ncccc4s3)ccc2o1` [Example 114, Benzyl-methyl-[5-(thiazolo[4,5-b]pyridin-2-yloxy)-benzofuran-2-ylmethyl]-amine] showed a pIC50 [1] of 7.82 and a pIC50 [2, 3] of 7.07.

`CC(=O)N[C@H]1C[C@H]2CC[C@@H](C1)N2CCc1coc2cc(Oc3nc4ccccc4s3)ccc12` [Example 129, meso-endo-N-(8-{2-[6-(Benzothiazol-2-yloxy)-benzofuran-3-yl]-ethyl}-8-aza-bicyclo[3.2.1]oct-3-yl)-acetamide] gave a pIC50 [1] of 7.89 and a pIC50 [2, 3] of 6.74.

Compound `CC(=O)N[C@H]1C[C@H]2CC[C@@H](C1)N2Cc1cc2ccc(Oc3nc4ccccc4s3)cc2s1` [Example 134, meso-endo-N-{8-[6-(Benzothiazol-2-yloxy)-benzo[b]thiophen-2-ylmethyl]-8-aza-bicyclo[3.2.1]oct-3-yl}-acetamide] has a pIC50 [1] of 7.37 and a pIC50 [2, 3] of 6.13.

`CCOC(=O)C1CCN(Cc2c[nH]c3cc(Oc4nc5ccccc5s4)ccc23)CC1` [Example 139, 1-[6-(Benzothiazol-2-yloxy)-1H-indol-3-ylmethyl]-piperidine-4-carboxylic acid ethyl ester] was tested, and the pIC50 [1] was 7.92 and the pIC50 [2, 3] was 6.33.

For `CCOC(=O)C1CCN(Cc2c[nH]c3cc(Oc4nc5cccnc5s4)ccc23)CC1` [Example 140, 1-[6-(Thiazolo[5,4-b]pyridin-2-yloxy)-1H-indol-3-ylmethyl]-piperidine-4-carboxylic acid ethyl ester], the pIC50 [1] was 7.68 and the pIC50 [2, 3] was 5.07.

Compound `COC(=O)CC1CCN(Cc2c[nH]c3cc(Oc4nc5ccccc5s4)ccc23)CC1` [Example 141, {1-[6-(Benzothiazol-2-yloxy)-1H-indol-3-ylmethyl]-piperidin-4-yl}-acetic acid methyl ester] has a pIC50 [1] of 7.70 and a pIC50 [2, 3] of 6.19.

`CCOC(=O)[C@@H]1CCCN(Cc2c[nH]c3cc(Oc4nc5ccccc5s4)ccc23)C1` [Example 144, (3R)-1-[6-(Benzothiazol-2-yloxy)-1H-indol-3-ylmethyl]-piperidine-3-carboxylic acid ethyl ester] showed a pIC50 [1] of 7.11 and a pIC50 [2, 3] of 5.61.

Work on `CC(C)(C)OC(=O)NC1CCN(Cc2c[nH]c3cc(Oc4nc5ccccc5s4)ccc23)CC1` [Example 145, {1-[6-(Benzothiazol-2-yloxy)-1H-indol-3-ylmethyl]-piperidin-4-yl}-carbamic acid tert-butyl ester] yielded a pIC50 [1] of 8.01 and a pIC50 [2, 3] of 6.77.

`CC(C)(C)OC(=O)N1CC2CN(Cc3c[nH]c4cc(Oc5nc6ccccc6s5)ccc34)CC2C1` (centres unmarked) [Example 146, 5-[6-(Benzothiazol-2-yloxy)-1H-indol-3-ylmethyl]-hexahydro-pyrrolo[3,4-c]pyrrole-2-carboxylic acid tert-butyl ester] showed a pIC50 [1] of 7.77 and a pIC50 [2, 3] of 6.24.

With `CC(C)(C)OC(=O)N1C[C@@H]2C[C@H]1CN2Cc1c[nH]c2cc(Oc3nc4ccccc4s3)ccc12` [Example 147, (1S,4S)-5-[6-(Benzothiazol-2-yloxy)-1H-indol-3-ylmethyl]-2,5-diaza-bicyclo[2.2.1]heptane-2-carboxylic acid tert-butyl ester] the pIC50 [1] was 7.92 and the pIC50 [2, 3] was 6.25.

`NC(=O)N1CC2CN(Cc3coc4cc(Oc5nc6ncccc6s5)ccc34)CC2C1` (centres unmarked) [Example 161, 5-[6-(Thiazolo[4,5-b]pyridin-2-yloxy)-benzofuran-3-ylmethyl]-hexahydro-pyrrolo[3,4-c]pyrrole-2-carboxylic acid amide] showed a pIC50 [1] of 8.05 and a pIC50 [2, 3] of 7.16.

`CC(=O)N1C[C@@H]2C[C@H]1CN2Cc1coc2cc(Oc3nc4ccccc4s3)ccc12` [Example 164, (1S,4S)-1-{5-[6-(Benzothiazol-2-yloxy)-benzofuran-3-ylmethyl]-2,5-diaza-bicyclo[2.2.1]hept-2-yl}-ethanone] was tested, and the pIC50 [1] was 7.59 and the pIC50 [2, 3] was 6.64.

In the case of `c1ccc2sc(Oc3ccc4c(CN5CCOCC5)coc4c3)nc2c1` [Example 165, 2-(3-Morpholin-4-ylmethyl-benzofuran-6-yloxy)-benzothiazole], the pIC50 [1] was 7.02 and the pIC50 [2, 3] was 6.08.

`CC(=O)N1CCN(Cc2cc3ccc(Oc4nc5ncccc5s4)cc3o2)CC1` [Example 171, 1-{4-[6-(Thiazolo[4,5-b]pyridin-2-yloxy)-benzofuran-2-ylmethyl]-piperazin-1-yl}-ethanone] showed a pIC50 [1] of 7.23 and a pIC50 [2, 3] of 6.55.

In the case of `NC(=O)N[C@H]1C[C@H]2CC[C@@H](C1)N2Cc1cc2ccc(Oc3nc4ncccc4s3)cc2o1` [Example 172, meso-endo-{8-[6-(Thiazolo[4,5-b]pyridin-2-yloxy)-benzofuran-2-ylmethyl]-8-aza-bicyclo[3.2.1]oct-3-yl}-urea], the pIC50 [1] was 8.05 and the pIC50 [2, 3] was 6.64.

Work on `NC(=O)N[C@H]1C[C@H]2CC[C@@H](C1)N2Cc1coc2cc(Oc3nc4ncccc4s3)ccc12` [Example 175, meso-endo-{8-[6-(Thiazolo[4,5-b]pyridin-2-yloxy)-benzofuran-3-ylmethyl]-8-aza-bicyclo[3.2.1]oct-3-yl}-urea] yielded a pIC50 [1] of 8.70 and a pIC50 [2, 3] of 6.75.

With `CN(Cc1ccco1)Cc1coc2cc(Oc3nc4ncccc4s3)ccc12` [Example 176, Furan-2-ylmethyl-methyl-[6-(thiazolo[4,5-b]pyridin-2-yloxy)-benzofuran-3-ylmethyl]-amine] the pIC50 [1] was 7.22 and the pIC50 [2, 3] was 6.70.

For `CN(Cc1cccnc1)Cc1coc2cc(Oc3nc4ncccc4s3)ccc12` [Example 178, Methyl-pyridin-3-ylmethyl-[6-(thiazolo[4,5-b]pyridin-2-yloxy)-benzofuran-3-ylmethyl]-amine], the pIC50 [1] was 7.70 and the pIC50 [2, 3] was 6.54.

`O=C1CCCN1C1CCN(Cc2coc3cc(Oc4nc5ccccc5s4)ccc23)CC1` [Example 179, 1-{1-[6-(Benzothiazol-2-yloxy)-benzofuran-3-ylmethyl]-piperidin-4-yl}-pyrrolidin-2-one] gave a pIC50 [1] of 7.96 and a pIC50 [2, 3] of 7.12.

`CC(=O)NC1CCN(Cc2coc3cc(Oc4nc5ccccc5s4)ccc23)CC1` [Example 180, N-{1-[6-(Benzothiazol-2-yloxy)-benzofuran-3-ylmethyl]-piperidin-4-yl}-acetamide] showed a pIC50 [1] of 7.68 and a pIC50 [2, 3] of 7.42.

For `CC(=O)N[C@H]1C[C@H]2CC[C@@H](C1)N2Cc1coc2cc(Oc3nc4ccccc4s3)ccc12` [Example 181, meso-endo-N-{8-[6-(Benzothiazol-2-yloxy)-benzofuran-3-ylmethyl]-8-aza-bicyclo[3.2.1]oct-3-yl}-acetamide], the pIC50 [1] was 8.52 and the pIC50 [2, 3] was 7.48.

In the case of `FC(F)(F)C1CCN(Cc2cc3ccc(Oc4nc5ncccc5s4)cc3o2)CC1` [Example 191, 2-[2-(4-Trifluoromethyl-piperidin-1-ylmethyl)-benzofuran-6-yloxy]-thiazolo[4,5-b]pyridine formate], the pIC50 [1] was 8.00 and the pIC50 [2, 3] was 6.08.

In the case of `c1cnc2nc(Oc3ccc4cc(CN5CCCCC5)oc4c3)sc2c1` [Example 192, 2-(2-Piperidin-1-ylmethyl-benzofuran-6-yloxy)-thiazolo[4,5-b]pyridine formate], the pIC50 [1] was 7.37 and the pIC50 [2] was 6.92.

Compound `NC(=O)N1C[C@H]2C[C@@H]1CN2Cc1cc2ccc(Oc3nc4ncccc4s3)cc2o1` [Example 193, (1R,4R)-5-[6-(Thiazolo[4,5-b]pyridin-2-yloxy)-benzofuran-2-ylmethyl]-2,5-diaza-bicyclo[2.2.1]heptane-2-carboxylic acid amide] has a pIC50 [1] of 7.28 and a pIC50 [2, 3] of 6.59.

`NC(=O)N1CC2CN(Cc3cc4ccc(Oc5nc6ncccc6s5)cc4o3)CC2C1` (centres unmarked) [Example 194, 5-[6-(Thiazolo[4,5-b]pyridin-2-yloxy)-benzofuran-2-ylmethyl]-hexahydro-pyrrolo[3,4-c]pyrrole-2-carboxylic acid amide] was tested, and the pIC50 [1] was 7.41 and the pIC50 [2, 3] was 6.59.

`CC(=O)N1CC2CN(Cc3cc4ccc(Oc5nc6ncccc6s5)cc4o3)CC2C1` (centres unmarked) [Example 195, 1-{5-[6-(Thiazolo[4,5-b]pyridin-2-yloxy)-benzofuran-2-ylmethyl]-hexahydro-pyrrolo[3,4-c]pyrrol-2-yl}-ethanone] showed a pIC50 [1] of 7.10 and a pIC50 [2, 3] of 6.82.

For `CC(=O)N1C[C@H]2CC[C@@H](C1)N2Cc1cc2ccc(Oc3nc4cnccc4s3)cc2o1` [Example 202, meso-1-{8-[6-(Thiazolo[4,5-c]pyridin-2-yloxy)-benzofuran-2-ylmethyl]-3,8-diaza-bicyclo[3.2.1]oct-3-yl}ethanone], the pIC50 [1] was 5.82 and the pIC50 [2, 3] was 5.57.

With `CC(=O)N1C[C@H]2CC[C@@H](C1)N2Cc1cc2cc(Oc3nc4cnccc4s3)ccc2o1` [Example 206, meso-1-{8-[5-(Thiazolo[4,5-c]pyridin-2-yloxy)-benzofuran-2-ylmethyl]-3,8-diaza-bicyclo[3.2.1]oct-3-yl}-ethanone] the pIC50 [1] was 6.83 and the pIC50 [2, 3] was 6.47.
